From patent US20250263391A1, “CRYSTALLINE FORM OF TEGAVIVINT, METHOD OF PREPARATION, AND USE THEREOF” (Iterion Therapeutics, Inc., priority 2020, published 2025)
Entries after “also recorded” stand apart in the source; their conditions may differ.

Key:
Assay type in all cases: physicochemical
[1] = Ball milling of Form I and Form IV: particle size (PSD)
Description: (§1) Therefore, ball milling of Form I and Form IV was performed to evaluate the form stability and particle size growth. The detailed procedure of ball milling was as follows. • 1. Suspend Form I and Form IV sample in 1% Poloxamer 188 water solution (50 mg/mL), separately. • 2. Add ˜12 mL suspension into a 50-mL tube which contained milling beads (the volume of milling beads is around 30 mL). After 12 mL suspension was added, the liquid surface just covered the beads. • 3. Roll the 50-mL tube (containing beads and suspension) at 5° C., RT and 60° C. with 30 rpm. • 4. Sample ˜0.8 mL suspension at 1, 2, 4, 24 h using 1-mL syringe. • 5. Test XRPD, PSD and PLM for the suspension.

[2] = Slurry competition of Form I, III, IV and V at high water activity at RT (XRPD of wet cake); settings: mixture of Form I
Description: The detailed procedure was as follows: • 1) Prepare saturated solution with Form I sample (803759-01-A) in three solvent systems. • 2) Add about 10 mg of each form into 1 mL corresponding saturated solution. • 3) Slurry and check the XRPD of the wet cake after one day and six days.

[3] = Ball milling of Form I and Form IV: form stability by XRPD; settings: for Form: ball milling in 1% Poloxamer 188 water solution (50 mg/mL)
Description: as §1
For XRPD analysis, PANalytical X'Pert^3 X-ray powder diffractometer was used.

[4] = Storage of milled Form I aqueous suspension; settings: milled to a very small particle size
Description: as §1

[5] = Form III samples after drying (XRPD)
[6] = Ball milling of Form I and Form IV: aggregation (PLM); settings: after 24 h
Description: as §1
PLM images were captured using Axio Scope A1 microscope from Carl Zeiss German.

[7] = VT-XRPD of Form IV and exposure to ambient conditions
Description: 2) After heating to 75 and 120° C., pure Form VI was observed. […] Thus, Form IV is believed to be a hydrate. For XRPD analysis, PANalytical X'Pert^3 X-ray powder diffractometer was used.

[8] = Dynamic Vapor Sorption (DVS); settings: 25° C./80% RH
Description: DVS was measured via a SMS (Surface Measurement Systems) DVS Intrinsic. The relative humidity at 25° C. were calibrated against deliquescence point of LiCl, Mg(NO3)2 and KCl.

CC1CC(C)CN(S(=O)(=O)c2ccc3c(c2)C(=NO)c2cc(S(=O)(=O)N4CC(C)CC(C)C4)ccc2C3=NO)C1 (stereo not shown) [Form I, (9E,10E)-2,7-bis((3,5-dimethylpiperidin-1-yl)sulfonyl)anthracene-9,10-dione dioxime]
D 90 ([1]; 5° C., 1 h, listed as Form 1): 9.4 μm
D 90 ([1]; 5° C., 2 h, listed as Form 1): 9.0 μm
D 90 ([1]; 5° C., 4 h, listed as Form 1): 5.2 μm
D 90 ([1]; 5° C., 24 h, listed as Form 1): 5.6 μm
D 90 ([1]; 60° C., 1 h, listed as Form 1): 22.6 μm
D 90 ([1]; 60° C., 2 h, listed as Form 1): 6.6 μm
D 90 ([1]; 60° C., 4 h, listed as Form 1): 5.3 μm
D 90 ([1]; 60° C., 24 h, listed as Form 1): 2.0 μm
D 90 ([1]; RT, 1 h, listed as Form 1): 22.4 μm
D 90 ([1]; RT, 2 h, listed as Form 1): 21.4 μm
D 90 ([1]; RT, 4 h, listed as Form 1): 14.2 μm
D 90 ([1]; RT, 24 h, listed as Form 1): 2.8 μm
Form obtained from slurry competition ([2]; IV and V slurried in ACN/H2O (1:1, v/v) at RT): New form
Form obtained from slurry competition ([2]; IV and V slurried in ACN/H2O (1:3, v/v) at RT): Form I
Form obtained from slurry competition ([2]; IV and V slurried in H2O at RT, XRPD after one day and six days): Form IV
Form ([3]; 5° C., 1 h, listed as Form 1): Form I
Form ([3]; 5° C., 2 h, listed as Form 1): Form I
Form ([3]; 5° C., 4 h, listed as Form 1): Form I
Form ([3]; 5° C., 24 h, listed as Form 1): Form I
Form ([3]; 60° C., 1 h, listed as Form 1): Form I
Form ([3]; 60° C., 2 h, listed as Form 1): Form I
Form ([3]; 60° C., 4 h): Form I
Form ([3]; 60° C., 24 h): Form I
Form ([3]; RT, 1 h, listed as Form 1): Form I
Form ([3]; RT, 2 h, listed as Form 1): Form I
Form ([3]; RT, 4 h, listed as Form 1): Form I
Form ([3]; RT, 24 h, listed as Form 1): Form I
Form conversion during storage [4]: started converting to Form IV
Particle size growth during storage [4]: unacceptable particle size growth

CC1CC(C)CN(S(=O)(=O)c2ccc3c(c2)C(=NO)c2cc(S(=O)(=O)N4CC(C)CC(C)C4)ccc2C3=NO)C1 (stereo not shown) [Form III, (9E,10E)-2,7-bis((3,5-dimethylpiperidin-1-yl)sulfonyl)anthracene-9,10-dione dioxime]
Form conversion ([5]; after exposure to ambient condition at RT): Form V
Form conversion ([5]; after vacuum drying at RT): converted to Form IV

CC1CC(C)CN(S(=O)(=O)c2ccc3c(c2)C(=NO)c2cc(S(=O)(=O)N4CC(C)CC(C)C4)ccc2C3=NO)C1 (stereo not shown) [Form IV, (9E,10E)-2,7-bis((3,5-dimethylpiperidin-1-yl)sulfonyl)anthracene-9,10-dione dioxime]
D 90 ([1]; 5° C., 1 h): 33.7 μm
D 90 ([1]; 5° C., 2 h): 17.4 μm
D 90 ([1]; 5° C., 4 h): 5.8 μm
D 90 ([1]; 5° C., 24 h): 9.8 μm
D 90 ([1]; 60° C., 1 h): 3.9 μm
D 90 ([1]; 60° C., 2 h): 4.0 μm
D 90 ([1]; 60° C., 4 h): 2.0 μm
D 90 ([1]; 60° C., 24 h): 0.6 μm
D 90 ([1]; RT, 1 h): 6.6 μm
D 90 ([1]; RT, 2 h): 4.0 μm
D 90 ([1]; RT, 4 h): 3.4 μm
D 90 ([1]; RT, 24 h): 5.8 μm
Form ([3]; 5° C., 1 h): Form IV
Form ([3]; 5° C., 2 h): Form IV
Form ([3]; 5° C., 4 h): Form IV
Form ([3]; 5° C., 24 h): Form IV
Form ([3]; 60° C., 1 h): Form IV
Form ([3]; 60° C., 2 h): form conversion was observed; also recorded: Form I + IV
Form ([3]; RT, 1 h): Form IV
Form ([3]; RT, 2 h): Form IV
Form ([3]; RT, 4 h): Form IV
Form ([3]; RT, 24 h): form conversion was observed; also recorded: Amorphous
Form conversion on ball milling ([3]; milled at elevated temperature (60° C.), time not stated): conversion to Form I; also recorded: converted to Form I
Aggregation ([6]; 5° C.): Aggregation was observed
Aggregation ([6]; RT): Aggregation was observed
Form by VT-XRPD ([7]; after cooling to 30° C.): Form VI was still observed
Form by VT-XRPD ([7]; after heating to 75 and 120° C.): pure Form VI
Form by VT-XRPD ([7]; at 30° C. under N2): partially converted to a new form
water uptake [8]: 9.1%

CC1CC(C)CN(S(=O)(=O)c2ccc3c(c2)C(=NO)c2cc(S(=O)(=O)N4CC(C)CC(C)C4)ccc2C3=NO)C1 (stereo not shown) [Form VI, (9E,10E)-2,7-bis((3,5-dimethylpiperidin-1-yl)sulfonyl)anthracene-9,10-dione dioxime]
Form conversion ([7]; after exposure to ambient condition): converted to Form IV quickly
